From PubChem BioAssay (NCI)
“And” between values parts separate entries of the source, which are not always exact repeats. Equal values may be shown once.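 A five-concentration, 48-hour dose response in 96-well plates underlies each endpoint, interpolated linearly between surrounding concentrations. Abbreviation: GI50, concentration required for 50% inhibition of growth. TGI: concentration producing complete growth inhibition.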

Test system: SNB-75 CNS
Experiment: growth of human tumour cells (NCI), 48 h

Point of comparison: `O=C(Nc1ncc(Cc2cccc(C(F)(F)F)c2)s1)c1ccc2c(c1)OCCO2`, GI50 0.185 µM. Against it:
- COC(=O)/C=C/c1cc(OC(C)=O)c2c(c1)C(C(=O)OC)C(c1ccc(OC(C)=O)c(OC(C)=O)c1)O2 (centres undefined) — 4.8-fold lower, 0.0382 µM
- C=C(C)C(C1C=C(CCC(C=O)=C(C)C)C(=O)O1)C1(OC)C=C(C)C(=O)O1 (centres undefined) — higher, > 100 µM
- CCOC(=O)Nc1c(C)nc2ccccn12 — higher, > 100 µM
- NC(=S)N/N=C/c1ncccc1O — 12-fold higher, 2.16 µM
- C=C(CN(C)Cc1ccccc1)c1ccc(NC(=O)c2ccc(C(=C)CN(C)Cc3ccccc3)cc2)cc1 — 75-fold higher, 13.9 µM
- C=CC12CCN(CC1)C(C(O)c1ccnc3ccc(OC)cc13)C2 (centres undefined) — 520-fold higher, 95.3 µM
- O=C(Nc1nc(-c2c[nH]c3ccccc23)cs1)c1n[nH]c(=O)c2ccccc12 — 88-fold higher, 16.2 µM
- CN(C)CCN1CCC(Cc2ccccc2)CC1 — higher, > 80 µM
- NC(=O)c1cc(I)ccc1NC(=O)/C=C/c1ccccc1 — 1.7-fold higher, 0.316 µM
- COc1ccc(CNc2c3ccccc3nc3ccccc23)cc1F — 17-fold higher, 3.21 µM
- CCN(Cc1c(F)cccc1OC)c1ccc(CO)c(Cl)c1 — 78-fold higher, 14.5 µM
- CCOC(=O)c1c(C)c2c(n1Cc1ccccc1)CSCC2=O — 99-fold higher, 18.4 µM

Point of comparison: `CCN(Cc1c(F)cccc1OC)c1ccc(CO)c(Cl)c1`, TGI 46.2 µM. Against it:
- COC(=O)/C=C/c1cc(OC(C)=O)c2c(c1)C(C(=O)OC)C(c1ccc(OC(C)=O)c(OC(C)=O)c1)O2 (centres undefined) — within 1.5-fold, 56.7 µM
- C=C(C)C(C1C=C(CCC(C=O)=C(C)C)C(=O)O1)C1(OC)C=C(C)C(=O)O1 (centres undefined) — higher, > 100 µM
- CCOC(=O)Nc1c(C)nc2ccccn12 — higher, > 100 µM
- CC(C)=CCC1=C(O)c2ccccc2C(=O)C1=O — higher, > 100 µM
- O=[N+]([O-])c1ccccc1N=Nc1c(O)[nH]c2c(Cl)cc(Cl)cc12 — 1.8-fold lower, 25.6 µM
- C=C(CN(C)Cc1ccccc1)c1ccc(NC(=O)c2ccc(C(=C)CN(C)Cc3ccccc3)cc2)cc1 — within 1.5-fold, 32.2 µM
- O=C(CC(=O)Nc1ccccc1)NNC(Sc1ccccc1)c1cc(N=Nc2ccc(Br)cc2)ccc1O (centres undefined) — not separable, > 10 µM
- Cc1cc(C(=O)CSC(=S)SC(C)(C)C)ccc1Cl — within 1.5-fold, 54.3 µM
- C=CC12CCN(CC1)C(C(O)c1ccnc3ccc(OC)cc13)C2 (centres undefined) — higher, > 100 µM
- O=C(Nc1nc(-c2c[nH]c3ccccc23)cs1)c1n[nH]c(=O)c2ccccc12 — higher, > 67.8 µM
- CN(C)CCN1CCC(Cc2ccccc2)CC1 — higher, > 80 µM
- COc1cc2c3c(n(C)c(=O)c2cc1OC)-c1cc2c(cc1C3=O)OCO2 — 2-fold lower, 22.6 µM
- COc1ccc(/C=C\c2cc(OC)c(OC)c(OC)c2)cc1OCC(=O)O — higher, > 58.7 µM
- O=C(CNc1ccc(Cl)cc1Cl)Nn1c(-c2ccccc2)nc2ccccc2c1=O — 1.5-fold lower, 30.5 µM
- O=C(Nc1ncc(Cc2cccc(C(F)(F)F)c2)s1)c1ccc2c(c1)OCCO2 — 6.4-fold lower, 7.17 µM
- NC(=O)c1cc(I)ccc1NC(=O)/C=C/c1ccccc1 — 5.3-fold lower, 8.68 µM
- COc1ccc(CNc2c3ccccc3nc3ccccc23)cc1F — 3-fold lower, 15.2 µM
- CCOC(=O)c1c(C)c2c(n1Cc1ccccc1)CSCC2=O — higher, > 100 µM

In the case of `NC(=S)N/N=C/c1ncccc1O`, the TGI is reported as > 51.9 µM and 60.6 µM.
`CCn1cc(-c2ccnc3[nH]c(-c4cccc(CN(C)C)c4)cc23)c(-c2ccc(NC(=O)N(C)C)cc2)n1` was tested, and the TGI was 2.38 µM and 3.42 µM.

For `CCn1cc(-c2ccnc3[nH]c(-c4cccc(CN(C)C)c4)cc23)c(-c2ccc(NC(=O)N(C)C)cc2)n1`, the GI50 was 0.217 µM and 0.461 µM.

Test system: UACC-62 melanoma
Experiment: growth of human tumour cells (NCI), 48 h

Point of comparison: `NC(=S)N/N=C/c1ncccc1O`, GI50 1.67 µM. Against it:
- Cc1nc2sccn2c1-c1nc2sccn2c1/C=C1/C(=O)Nc2ccccc21 — 3.1-fold higher, 5.15 µM
- Cc1cccc(NC2=C(Cl)C(=O)c3nc(C)ccc3C2=O)c1 — within 1.5-fold, 1.13 µM
- COc1cc2c(cc1OCCCN1CCN(CCCOc3cc4c(cc3OC)C(=O)N3CC(F)(F)C[C@H]3C=N4)CC1)N=C[C@@H]1CC(F)(F)CN1C2=O — 1.8-fold higher, 3.05 µM
- COC(=O)C1=CN(CC2=CC(=O)C(C)=CC2=O)C=C(C(=O)OC)C1c1ccccc1OC — 8-fold higher, 13.3 µM
- COc1cccc2c1O/C(=C\c1ccc([N+](=O)[O-])s1)C2=O — within 1.5-fold, 1.36 µM
- COC(=O)/C=C/c1cc(OC(C)=O)c2c(c1)C(C(=O)OC)C(c1ccc(OC(C)=O)c(OC(C)=O)c1)O2 (centres undefined) — 5.6-fold lower, 0.298 µM
- C=C(C)C(C1C=C(CCC(C=O)=C(C)C)C(=O)O1)C1(OC)C=C(C)C(=O)O1 (centres undefined) — 57-fold higher, 95.4 µM
- CCOC(=O)Nc1c(C)nc2ccccn12 — higher, > 100 µM
- C=C(CN(C)Cc1ccccc1)c1ccc(NC(=O)c2ccc(C(=C)CN(C)Cc3ccccc3)cc2)cc1 — 30-fold higher, 50.2 µM

Point of comparison: `COc1cc2c(cc1OCCCN1CCN(CCCOc3cc4c(cc3OC)C(=O)N3CC(F)(F)C[C@H]3C=N4)CC1)N=C[C@@H]1CC(F)(F)CN1C2=O`, TGI 13.2 µM. Against it:
- Cc1nc2sccn2c1-c1nc2sccn2c1/C=C1/C(=O)Nc2ccccc21 — higher, > 100 µM
- Cc1cccc(NC2=C(Cl)C(=O)c3nc(C)ccc3C2=O)c1 — 5.3-fold lower, 2.49 µM
- CCCCCCCCSC1=C(Cl)C(=O)C(OC)=C(OC)C1=O — 1.8-fold higher, 24 µM
- COC(=O)C1=CN(CC2=CC(=O)C(C)=CC2=O)C=C(C(=O)OC)C1c1ccccc1OC — 2.1-fold higher, 27.5 µM
- COc1cccc2c1O/C(=C\c1ccc([N+](=O)[O-])s1)C2=O — 4.1-fold lower, 3.23 µM
- COC(=O)/C=C/c1cc(OC(C)=O)c2c(c1)C(C(=O)OC)C(c1ccc(OC(C)=O)c(OC(C)=O)c1)O2 (centres undefined) — 1.7-fold higher, 21.8 µM
- C=C(C)C(C1C=C(CCC(C=O)=C(C)C)C(=O)O1)C1(OC)C=C(C)C(=O)O1 (centres undefined) — higher, > 100 µM
- CCOC(=O)Nc1c(C)nc2ccccn12 — higher, > 100 µM
- CC(C)=CCC1=C(O)c2ccccc2C(=O)C1=O — higher, > 100 µM
- O=[N+]([O-])c1ccccc1N=Nc1c(O)[nH]c2c(Cl)cc(Cl)cc12 — higher, > 100 µM
- C=C(CN(C)Cc1ccccc1)c1ccc(NC(=O)c2ccc(C(=C)CN(C)Cc3ccccc3)cc2)cc1 — higher, > 100 µM

For `CC(C)=CCC1=C(O)c2ccccc2C(=O)C1=O`, the GI50 was > 100 µM and 13.4 µM.

`NC(=S)N/N=C/c1ncccc1O` was tested, and the TGI was 11 µM and 9.55 µM.
